Among the data in patent US20250000989A1, “PYRROLO BENZODIAZEPINE DERIVATIVE, AND CONJUGATE, PREPARATION METHOD AND USE THEREOF” (priority 2021, published 2025) are IC50 values, retold here.

Assay in all cases: Inhibition of in vitro proliferation of tumor cells by PBD compounds (CTG)
Holding throughout (type): cell-based

Experiment [1] has as its system NCI-H23 (human non-small cell lung cancer cells). To be noted: 144 h, 6 days of culture. On the procedure: (§1) The objective of this assay is to measure the activity of the compounds of the present disclosure in inhibiting the proliferation of different tumor cell lines: SK-BR-3 tumor cells (human breast cancer cells, ATCC, Cat. No. HTB-30), NCI-H23 (human non-small cell lung cancer cells, Nanjing Cobioer, Cat. No. CBP60132), and MKN45 (human gastric cancer cells, Nanjing Cobioer, Cat. No. CBP60488). The cells were treated in vitro with different concentrations of the compounds. After 6 days of culture, the proliferation of the cells was measured using CTG (CellTiter-Glo® Luminescent Cell Viability Assay, Promega, Cat. No. G7573) reagent, and the in vitro activity of the compounds was evaluated based on their IC50 values.
(§2) • 1. Cell culture: SK-BR-3, NCI-H23, and MKN45 cells were separately cultured in McCoy's 5A medium (ThermoFisher, Cat. No. 16600108) and RPMI 1640 medium (ThermoFisher, Cat. No. 11875119) containing 10% FBS (Gibco, 10099-141). • 2. Cell plating: After being digested with trypsin (0.25% Trypsin-EDTA (1×), Life Technologies, Cat. No. 25200-072), the SK-BR-3, NCI-H23, and MKN45 were resuspended in their respective media and counted. The density was adjusted to 1.48×10^4 cells/mL, and the cells were plated onto 96-well plates (corning, Cat. No. 3903) at 135 μL/well, i.e., 2000 cells/well, and cultured at 37° C. for 24 h. • 3. Drug formulation: PBD drugs were formulated in round-bottom 96-well plates. Plate 1: In the first column, the concentration was 0.05 mM; in the second column through the fourth column, a 3-fold serial dilution was performed in DMSO; in the fifth column through the sixth column, a 5-fold serial dilution was performed in DMSO; in the seventh column through the ninth column, a 10-fold serial dilution was performed in DMSO; and the tenth column contained DMSO. Plate 2: Corresponding media were added to the first column through the tenth column at 196 μL/well; 4 μL of solution was transferred from each well of the first column through the tenth column of plate 1 to plate 2 and well mixed with the medium; 15 μL of the mixture was added to the cells plated the day before, and the cells were cultured at 37° C. for another 6 days. • 4. CTG assay: The cell culture plates were taken out and equilibrated to room temperature. CTG was added at 75 μL/well, and the plates were incubated at room temperature in the dark for 10 min. Then luminescence values were measured on a microplate reader (BMG labtech, PHERAstar FS).

Experiment [2] relates to SK-BR-3 tumor cells (human breast cancer cells). To be noted: 144 h, 6 days of culture. On the procedure:
as §1, §2

Experiment [3] deals with MKN45 (human gastric cancer cells). To be noted: MKN-45, 144 h, 6 days of culture. As to the method:
as §1, §2

For `COc1cc2c(cc1OCCCCCOc1cc3c(cc1OC)C(=O)N1C=C(c4ccc(N5CCN(C)CC5)cc4)C[C@H]1CN3)N=C[C@@H]1CC3(CC3)CN1C2=O` [2-1, (S)-7-Methoxy-8-((5-(((S)-7-methoxy-2-(4-(4-methylpiperazin-1-yl)phenyl)-5-oxo-5,10,11,11a-tetrahydro-1H-benzo[e]pyrrolo[1,2-a][1,4]diazepin-8-yl)oxy)pentyl)oxy)-1,11a-dihydro-3H,5H-spiro[benzo[e]pyrrolo[1,2-a][1,4]diazepine-2,1′-cyclopropan]-5-one], the IC50 (as a rule, the concentration that inhibits the measured activity by half) was 0.02 nM in experiment [1], 0.07 nM in experiment [2] and 0.02 nM in experiment [3].

`COc1cc2c(cc1OCCCCCOc1cc3c(cc1OC)C(=O)N1C=C(c4ccc(N5CCOCC5)cc4)C[C@H]1CN3)N=C[C@@H]1CC3(CC3)CN1C2=O` [2-2, (S)-7-Methoxy-8-((5-(((S)-7-methoxy-2-(4-morpholinylphenyl)-5-oxo-5,10,11,11a-tetrahydro-1H-benzo[e]pyrrolo[1,2-a][1,4]diazepin-8-yl)oxy)pentyl)oxy)-1,11a-dihydro-3H,5H-spiro[benzo[e]pyrrolo[1,2-a][1,4]diazepine-2,1′-cyclopropan]-5-one]: the values for the concentration for half-maximal inhibition (IC50) in experiment [1], in experiment [2] and in experiment [3] were 0.02 nM, 0.05 nM and 0.09 nM, respectively.

As to `COc1cc2c(cc1OCCCCCOc1cc3c(cc1OC)C(=O)N1C=C(c4ccc(SC5CC5)cc4)C[C@H]1CN3)N=C[C@@H]1CC3(CC3)CN1C2=O` [2-3], the IC50 in experiment [1] is 0.05 nM; in experiment [2], 0.2 nM; in experiment [3] it was 0.49 nM.

Regarding `COc1cc2c(cc1OCCCCCOc1cc3c(cc1OC)C(=O)N1C=C(c4ccc(-n5cccn5)cc4)C[C@H]1CN3)N=C[C@@H]1CC3(CC3)CN1C2=O` [2-4, (S)-8-((5-(((S)-2-(4-(1H-Pyrazol-1-yl)phenyl)-7-methoxy-5-oxo-5,10,11,11a-tetrahydro-1H-benzo[e]pyrrolo[1,2-a][1,4]diazepin-8-yl)oxy)pentyl)oxy)-7-methoxy-1,11a-dihydro-3H,5H-spiro[benzo[e]pyrrolo[1,2-a][1,4]diazepine-2,1′-cyclopropan]-5-one], the IC50 in experiment [1] was determined as 0.34 nM; in experiment [2], 0.71 nM; in experiment [3], 1.45 nM.

On to `COc1cc2c(cc1OCCCCCOc1cc3c(cc1OC)C(=O)N1C=C(c4ccc(C5CCOCC5)cc4)C[C@H]1CN3)N=C[C@@H]1CC3(CC3)CN1C2=O` [2-5, (S)-7-Methoxy-8-((5-(((S)-7-methoxy-5-oxo-2-(4-(tetrahydro-2H-pyran-4-yl)phenyl)-5,10,11,11a-tetrahydro-1H-benzo[e]pyrrolo[1,2-a][1,4]diazepin-8-yl)oxy)pentyl)oxy)-1,11a-dihydro-3H,5H-spiro[benzo[e]pyrrolo[1,2-a][1,4]diazepine-2,1′-cyclopropan]-5-one], for which the values for the IC50 in experiment [1], in experiment [2] and in experiment [3] were 0.41 nM, 1.84 nM and 0.91 nM, respectively.

In the case of `COc1cc2c(cc1OCCCCCOc1cc3c(cc1OC)C(=O)N1C=C(c4ccc(C5CCN(C)CC5)cc4)C[C@H]1CN3)N=C[C@@H]1CC3(CC3)CN1C2=O` [2-6, (S)-7-Methoxy-8-((5-(((S)-7-methoxy-2-(4-(1-methylpiperidin-4-yl)phenyl)-5-oxo-5,10,11,11a-tetrahydro-1H-benzo[e]pyrrolo[1,2-a][1,4]diazepin-8-yl)oxy)pentyl)oxy)-1,11a-dihydro-3H,5H-spiro[benzo[e]pyrrolo[1,2-a][1,4]diazepine-2,1′-cyclopropan]-5-one], the IC50 in experiment [1] worked out at 0.03 nM; in experiment [2], 0.24 nM; in experiment [3], 0.06 nM.

On to `COc1cc2c(cc1OCCCCCOc1cc3c(cc1OC)C(=O)N1C=C(c4ccc(-n5nccn5)cc4)C[C@H]1CN3)N=C[C@@H]1CC3(CC3)CN1C2=O` [2-7, (S)-8-((5-(((S)-2-(4-(2H-1,2,3-Triazol-2-yl)phenyl)-7-methoxy-5-oxo-5,10,11,11a-tetrahydro-1H-benzo[e]pyrrolo[1,2-a][1,4]diazepin-8-yl)oxy)pentyl)oxy)-7-methoxy-1,11a-dihydro-3H,5H-spiro[benzo[e]pyrrolo[1,2-a][1,4]diazepine-2,1′-cyclopropan]-5-one], for which the IC50 in experiment [1] came out at 0.04 nM; in experiment [2] it was 0.08 nM; in experiment [3], 0.07 nM.

`COc1cc2c(cc1OCCCCCOc1cc3c(cc1OC)C(=O)N1C=C(c4ccc(C5CCN(CCO)CC5)cc4)C[C@H]1CN3)N=C[C@@H]1CC3(CC3)CN1C2=O` [2-9, (S)-8-((5-(((S)-2-(4-(1-(2-Hydroxyethyl)piperidin-4-yl)phenyl)-7-methoxy-5-oxo-5,10,11,11a-tetrahydro-1H-benzo[e]pyrrolo[1,2-a][1,4]diazepin-8-yl)oxy)pentyl)oxy)-7-methoxy-1,11a-dihydro-3H,5H-spiro[benzo[e]pyrrolo[1,2-a][1,4]diazepine-2,1′-cyclopropan]-5-one]: the figures for the IC50 in experiment [1], in experiment [2] and in experiment [3] were 0.23 nM, 1.25 nM and 0.19 nM, respectively.

For the compound `COc1cc2c(cc1OCCCCCOc1cc3c(cc1OC)C(=O)N1C=C(c4ccc(C5CCN(C(=O)CO)CC5)cc4)C[C@H]1CN3)N=C[C@@H]1CC3(CC3)CN1C2=O` [2-10, (S)-8-((5-(((S)-2-(4-(1-(2-Hydroxyacetyl)piperidin-4-yl)phenyl)-7-methoxy-5-oxo-5,10,11,11a-tetrahydro-1H-benzo[e]pyrrolo[1,2-a][1,4]diazepin-8-yl)oxy)pentyl)oxy)-7-methoxy-1,11a-dihydro-3H,5H-spiro[benzo[e]pyrrolo[1,2-a][1,4]diazepine-2,1′-cyclopropan]-5-one], the IC50 in experiment [1] was determined as 0.2 nM; in experiment [2], 0.63 nM; in experiment [3], 0.61 nM.

With `COc1cc2c(cc1OCCCCCOc1cc3c(cc1OC)C(=O)N1C=C(c4ccc(C5CCN(C(C)=O)CC5)cc4)C[C@H]1CN3)N=C[C@@H]1CC3(CC3)CN1C2=O` [2-11, (S)-8-((5-(((S)-2-(4-(1-Acetylpiperidin-4-yl)phenyl)-7-methoxy-5-oxo-5,10,11,11a-tetrahydro-1H-benzo[e]pyrrolo[1,2-a][1,4]diazepin-8-yl)oxy)pentyl)oxy)-7-methoxy-1,11a-dihydro-3H,5H-spiro[benzo[e]pyrrolo[1,2-a][1,4]diazepine-2,1′-cyclopropan]-5-one], the IC50 in experiment [1] came to 0.11 nM; in experiment [2], 0.32 nM; in experiment [3], 0.69 nM.

For `COc1ccc(C2=CN3C(=O)c4cc(OC)c(OCC5(CCCOc6cc7c(cc6OC)C(=O)N6CC8(CC8)C[C@H]6C=N7)CC5)cc4NC[C@@H]3C2)cc1` [2-13, (S)-7-Methoxy-8-(3-(1-((((S)-7-methoxy-2-(4-methoxyphenyl)-5-oxo-5,10,11,11a-tetrahydro-1H-benzo[e]pyrrolo[1,2-a][1,4]diazepin-8-yl)oxy)methyl)cyclopropyl)propoxy)-1,11a-dihydro-3H,5H-spiro[benzo[e]pyrrolo[1,2-a][1,4]diazepine-2,1′-cyclopropan]-5-one], the IC50 is 1.42 nM in experiment [1], 1.64 nM in experiment [2] and 4.35 nM in experiment [3].

Take `COc1ccc(C2=CN3C(=O)c4cc(OC)c(OCCCCCOc5cc6c(cc5OC5CC5)C(=O)N5CC7(CC7)C[C@H]5C=N6)cc4NC[C@@H]3C2)cc1` [2-16, (S)-7-Cyclopropoxy-8-((5-(((S)-7-methoxy-2-(4-methoxyphenyl)-5-oxo-5,10,11,11a-tetrahydro-1H-benzo[e]pyrrolo[1,2-a][1,4]diazepin-8-yl)oxy)pentyl)oxy)-1,11a-dihydro-3H,5H-spiro[benzo[e]pyrrolo[1,2-a][1,4]diazepine-2,1′-cyclopropan]-5-one]: the IC50 is 0.18 nM in experiment [1], 0.36 nM in experiment [2] and 0.26 nM in experiment [3].

On to `COc1ccc(C2=CN3C(=O)c4cc(OC)c(OCCCCCOc5cc6c(cc5OC)C(=O)N5[C@H](C=N6)C[C@@H]6C[C@@H]65)cc4NC[C@@H]3C2)cc1` [2-21, (1aS,9aS,10aS)-5-Methoxy-6-((5-(((S)-7-methoxy-2-(4-methoxyphenyl)-5-oxo-5,10,11,11a-tetrahydro-1H-benzo[e]pyrrolo[1,2-a][1,4]diazepin-8-yl)oxy)pentyl)oxy)-1a,9a,10,10a-tetrahydrobenzo[e]cyclopropa[4,5]pyrrolo[1,2-a][1,4]diazepin-3(1H)-one], for which the IC50 in experiment [1] turned out to be 0.12 nM; in experiment [2] it was 0.28 nM; in experiment [3], 0.57 nM.
